IC50 data for 29 compounds are collected here from patent US6747027B1, “Thiol sulfonamide metalloprotease inhibitors” (Pharmacia Corporation, priority 1996, dated 2004).

Molecules are shown by their SMILES. Some results are limits rather than exact numbers.

One test addresses T1, recombinant human MMP-13 (Homo sapiens, UniProt P45452).
T1 construct: made in house
In words: In vitro metalloprotease inhibition, fluorogenic peptide assay (MMP-13). The class given is biochemical. On the procedure:
(§1) Certain of the compounds prepared in the manner described in Examples 1 to 223 were tested for activity by an in vitro assay. Following the procedures of Knight et al., FEBS Lett. 296(3):263 (1992). Briefly, 4-aminophenylmercuric acetate (APMA) or trypsin activated MMPs were incubated with various concentrations of the inhibitor compound at room temperature for 5 minutes (0.02% 2-mercapto-ethanol added to buffer for thiol compounds with 5 minutes or overnight incubation). More specifically, recombinant human MMP-13 and MMP-1 enzymes were prepared in laboratories of the inventors' employer. MMP-13 was expressed in baculovirus as a proenzyme, and purified first over a heparin agarose column and then over a chelating zinc chloride column. The proenzyme was activated by APMA for use in the assay. MMP-1 expressed in transfected HT-1080 was provided by Dr. Howard Welgus of Washington University, St. Louis, Mo. The enzyme was also activated using APMA and was then purified over a hydroxamic acid column.
(§2) The enzyme substrate is a methoxycoumarin-containing polypeptide having the following sequence:
(§3) MCA-ProLeuGlyLeuDpaAlaArgNH^2, wherein MCA is methoxycoumarin and Dpa is 3-(2,4-dinitrophenyl)-L-2,3-diaminopropionyl alanine. This substrate is commercially available from Baychem as product M-1895.
(§4) The buffer used for assays contained 100 mM Tris-HCl, 100 mM NaCl, 10 mM CaCl2 and 0.05 percent polyethyleneglycol(23) lauryl ether at a pH value of 7.5. Assays were carried out at room temperature, and dimethyl sulfoxide (DMSO) at a final concentration of 1 percent was used to dissolve inhibitor compound.
(§5) The assayed inhibitor compound in DMSO/buffer solution was compared to an equal amount of DMSO/buffer with no inhibitor as control using microfluor™ white plates (Dynatech). The inhibitor or control solution was maintained in the plate for 10 minutes and the substrate was added to provide a final concentration of 4 uM.
(§6) In the absence of inhibitor activity, a fluorogenic peptide is cleaved at the gly-leu peptide bond, separating the highly fluorogenic peptide from a 2.4-dinitrophenyl quencher, resulting in an increase of fluorescence intensity (excitation at 328 nm/emmision at 415 nm). Inhibition was measured as a reduction in fluorescent intensity as a function of inhibitor concentration, using a Perkin Elmer L550 plate reader. The IC50 values were calculated from those values. The results are set forth in the Inhibition Table below, reported in terms of IC50 to three significant figures.

The next test deals with T2, recombinant human MMP-1 (Homo sapiens, UniProt P03956).
T2 construct: made in house; host or cells: transfected HT-1080 cells (provided by Dr. Howard Welgus, Washington University)
T2 sequence (P03956 100-469): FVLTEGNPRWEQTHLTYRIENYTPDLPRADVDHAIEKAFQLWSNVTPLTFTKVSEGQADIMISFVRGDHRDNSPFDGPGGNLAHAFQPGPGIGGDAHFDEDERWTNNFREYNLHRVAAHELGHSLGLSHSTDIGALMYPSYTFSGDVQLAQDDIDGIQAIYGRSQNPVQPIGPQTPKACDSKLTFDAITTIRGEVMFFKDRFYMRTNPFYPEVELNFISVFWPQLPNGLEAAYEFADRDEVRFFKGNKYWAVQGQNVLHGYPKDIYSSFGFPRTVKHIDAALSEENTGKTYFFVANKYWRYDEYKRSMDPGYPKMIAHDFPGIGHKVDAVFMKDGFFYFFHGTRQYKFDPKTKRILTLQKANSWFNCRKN
The test is described as follows: In vitro metalloprotease inhibition, fluorogenic peptide assay (MMP-1). Type of test: biochemical. The conditions noted are these: recombinant human MMP-1, APMA activated; fluorogenic MCA peptide substrate 4 uM; pH 7.5, room temperature. The procedure: as §1, §2, §3, §4, §5, §6

[1] abbreviates: recombinant human MMP-13, APMA activated, fluorogenic MCA peptide substrate 4 uM, pH 7.5, room temperature.

One may read the IC50 as the concentration needed to halve the response being measured. Turning to `COc1ccc(S(=O)(=O)N(CC(C)C)[C@H](C)CS)cc1` [Example 14C, N-(2-Mercapto-1R-methylethyl)-N-(2-methylpropyl)-4-methoxybenzenesulfonamide], the half-maximal inhibitory concentration (IC50) on recombinant human MMP-13 (setting [1]) stood at 46 nM; on recombinant human MMP-1 it was 1060 nM.
The matching figures for `CCCCOc1ccc(S(=O)(=O)N[C@H](C)CS)cc1` [Example 15, N-(2-Mercapto-1R-methylethyl)-4-(n-butoxy)benzenesulfonamide]: 75 nM and more than 10000 nM.
On the same counts, the results for `COc1ccc(S(=O)(=O)N[C@H](C)CS)cc1` [Example 16B, N-(2-Mercapto-1R-methylethyl)-4-methoxybenzenesulfonamide] are 245 nM and 7000 nM.
The matching figures for `CCCCOc1ccc(S(=O)(=O)N(Cc2ccccc2)[C@H](C)CS)cc1` [Example 17C]: 260 nM and more than 10000 nM.
Regarding `CCCCOc1ccc(S(=O)(=O)N(C)[C@H](C)CSSC[C@@H](C)N(C)S(=O)(=O)c2ccc(OCCCC)cc2)cc1` [Example 18], the IC50 at recombinant human MMP-13 (setting [1]) is 390 nM; at recombinant human MMP-1 it was more than 10000 nM.
As for `C[C@H](CS)N(C)S(=O)(=O)c1ccc2c(c1)OCO2` [Example 20C, N-(2-Mercapto-1R-methylethyl)-N-methyl-5-(1,3-benzodioxol-5-yl)sulfonamide], the values for the IC50 on recombinant human MMP-13 (setting [1]) and on recombinant human MMP-1 were 110 nM and 3000 nM, respectively.
The matching figures for `C[C@H](CS)N(Cc1ccccc1)S(=O)(=O)c1ccc2c(c1)OCO2` [Example 21C, N-(2-Mercapto-1R-methylethyl)-N-(phenylmethyl)-5-(1,3-benzodioxol-5-yl)sulfonamide]: 200 nM and 7000 nM.
The matching figures for `CCCCOc1ccc(S(=O)(=O)N(C)[C@H](C)CS)cc1` [Example 22C, N-(2-mercapto-1R-methylethyl)-N-methyl-4-(n-butoxybenzene)sulfonamide]: 13 nM and 3400 nM.
For the compound `COc1ccc(S(=O)(=O)N2CCC(S)C2)cc1` (centres unmarked) [Example 26, 1-[(4-Methoxyphenyl)sulfonyl]-3-mercaptopyrrolidine], the half-inhibitory concentration (IC50) is 250 nM at recombinant human MMP-13 (setting [1]) and more than 10000 nM at recombinant human MMP-1.
The matching figures for `COc1ccc(S(=O)(=O)N2CCCC2CS)cc1` (centres unmarked) [Example 28, 1-[(4-Methoxyphenyl)sulfonyl]pyrrolidine-2-methanethiol]: 800 nM and more than 10000 nM.
On the same counts, the results for `COc1ccc(S(=O)(=O)N(Cc2ccccc2)[C@@H](CS)C(C)C)cc1` [Example 31D, N-[(1R-Mercaptomethyl)-2-methylpropyl]-4-methoxy-N-(phenylmethyl)benzenesulfonamide] are 600 nM and 2500 nM.
The matching figures for `COc1ccc(S(=O)(=O)N(Cc2ccccc2)C(CSC(C)=O)C(C)C)cc1` (centres unmarked) [Example 33C]: 345 nM and more than 10000 nM.
Take `COc1ccc(S(=O)(=O)N(Cc2ccccc2)[C@H](CS)C(C)C)cc1` [Example 33D, N-[(1S-Mercaptomethyl)-2-methylpropyl]-4-methoxy-N-(phenylmethyl)benzenesulfonamide]: the IC50 at recombinant human MMP-13 (setting [1]) and on recombinant human MMP-1 was more than 10000 nM each time.
For `CCCOc1ccc(S(=O)(=O)N(C)[C@H](C)CS)cc1` [Example 37C, N-(2-Mercapto-1R-methylethyl)-N-methyl-4-(n-propyloxy)benzenesulfonamide], the 50% inhibitory concentration (IC50) at recombinant human MMP-13 (setting [1]) is 5 nM; on recombinant human MMP-1, 1500 nM.
On the same counts, the results for `CCOc1ccc(S(=O)(=O)N(C)[C@H](C)CS)cc1` [Example 38C, N-(2-Mercapto-1R-methylethyl)-N-methyl-4-ethoxybenzenesulfonamide] are 31 nM and 2500 nM.
As to `CCCCCOc1ccc(S(=O)(=O)N(C)[C@H](C)CS)cc1` [Example 39C, N-(2-Mercapto-1R-methylethyl)-N-methyl-4-(n-pentyloxy)benzenesulfonamide], the 50% inhibitory concentration (IC50) was 21.5 nM on recombinant human MMP-13 (setting [1]) and more than 10000 nM on recombinant human MMP-1.
As for `C[C@H](CS)N(C)S(=O)(=O)c1ccc(Oc2ccccc2)cc1` [Example 40E, N-(2-Mercapto-1R-methylethyl)-N-methyl-4-(phenoxy)benzenesulfonamide], the IC50 is 0.61 nM on recombinant human MMP-13 (setting [1]) and 309 nM on recombinant human MMP-1.
For the compound `C[C@H](CS)N(C)S(=O)(=O)c1ccc(Sc2ccccc2)cc1` [Example 41C, N-(2-Mercapto-1R-methylethyl)-N-methyl-4-(thiophenyl)benzenesulfonamide], the 50% inhibitory concentration (IC50) at recombinant human MMP-13 (in vitro, recombinant human MMP-13) was 2 nM; at recombinant human MMP-13 (setting [1]), 1.8 nM; on recombinant human MMP-1, more than 10000 nM.
On to `C[C@H](CO)N(C)S(=O)(=O)c1ccc(-c2ccccn2)s1` [Example 42D, N-(2-Hydroxy-1R-methylethyl)-N-methyl-2-(pyrid-2-yl)thiophene-5-sulfonamide], for which the IC50 at recombinant human MMP-13 (setting [1]) was 1800 nM; on recombinant human MMP-1, more than 10000 nM.
As to `COc1ccc(S(=O)(=O)N(C)Cc2ccccc2S)cc1` [Example 44, N-[(2-Mercaptophenyl)methyl]-N-methyl-4-methoxybenzenesulfonamide], the concentration for half-maximal inhibition (IC50) on recombinant human MMP-13 (setting [1]) was 400 nM; at recombinant human MMP-1, more than 10000 nM.
The matching figures for `CCCCOc1ccc(S(=O)(=O)N(CCN2CCOCC2)[C@H](C)CS)cc1` [Example 45C, N-(2-Mercapto-1R-methylethyl)-N-[2-(4-morpholino)ethyl]-4-(n-butoxy)benzenesulfonamide]: 3 nM and 3200 nM.
On the same counts, the results for `CCCCOc1ccc(S(=O)(=O)N(CCN2CCCCC2)[C@H](C)CS)cc1` [Example 46, N-(2-Mercapto-1R-methylethyl)-N-[2-(1-piperidino)ethyl]-4-(n-butoxy)benzenesulfonamide] are 4 nM and 3500 nM.
On the same counts, the results for `CCCCOc1ccc(S(=O)(=O)N(CCN2CCCC2)[C@H](C)CS)cc1` [Example 47C, N-(2-Mercapto-1R-methylethyl)-N-[2-(1-pyrrolidino)ethyl]-4-(n-butoxy)benzenesulfonamide] are 4.47 nM and 4830 nM.
On to `CCCCCN([C@H](C)CS)S(=O)(=O)c1ccc(OCCCC)cc1` [Example 48C, N-(2-Mercapto-1R-methylethyl)-N-pentyl-4-(n-butoxy)benzenesulfonamide], for which the concentration for half-maximal inhibition (IC50) is 45 nM on recombinant human MMP-13 (setting [1]) and more than 10000 nM on recombinant human MMP-1.
On the same counts, the results for `COc1ccc(S(=O)(=O)N(Cc2cccnc2)[C@H](C)CS)cc1` [Example 49, N-(2-Mercapto-1-R-methylethyl)-N-(3-pyridylmethyl)-4-methoxybenzenesulfonamide] are 17.5 nM and 300 nM.
Take `C[C@H](CS)N(Cc1ccccc1)S(=O)(=O)CCCSc1ccccc1` [Example 51, N-(2-Mercapto-1R-methylethyl)-N-benzyl(3-thiophenylpropyl)sulphonamide]: the half-inhibitory concentration (IC50) was 340 nM on recombinant human MMP-13 (setting [1]) and more than 10000 nM on recombinant human MMP-1.
In the case of `C[C@H](CS)N(CCN1CCCCC1)S(=O)(=O)CCCSc1ccccc1` [Example 52, N-(2-Mercapto-1R-methylethyl)-N-[2-(1-piperidino)ethyl](3-thiophenylpropyl)sulphonamide], the IC50 at recombinant human MMP-13 (setting [1]) is 45 nM; on recombinant human MMP-1, more than 10000 nM.
Turning to `CCCCCc1ccc(S(=O)(=O)N(C)[C@H](C)CS)cc1` [Example 53, N-(2-Mercapto-1R-methylethyl)-N-methyl-4-(n-pentyl)benzenesulfonamide], the IC50 at recombinant human MMP-13 (setting [1]) was 11 nM; at recombinant human MMP-1, more than 10000 nM.
The matching figures for `CCCCCc1ccc(S(=O)(=O)N(CCN2CCOCC2)[C@H](C)CS)cc1` [Example 54, N-(2-Mercapto-1R-methylethyl)-N-[2-(4-morpholino)ethyl]-4-(n-pentyl)benzenesulfonamide]: 7 nM and 9000 nM.
